Literature values in US4303671A, “Albumin stabilized prostacyclin” (priority 1980, dated 1981).

What was measured:
[1] = FEBS Letters 82:321-324 (1977)
[2] = human plasma and human serum albumin; FASEB Meeting abstract, 1980
[3] = kept in whole blood or plasma; The Lancet, July 29, 1978
[4] = under acid conditions, including at physiological pH's
[5] = test system: blood platelet aggregation; conditions: at the time of its discovery

## CCCCC[C@H](O)/C=C/[C@H]1O[C@H]2C[C@H](O2)[C@@H]1C/C=C\CCCC(=O)O [thromboxane A2]
[1]
  stabilization of thromboxane A2 by albumin (in words): ability to stabilize thromboxane A2

## CCCCC[C@H](O)/C=C/[C@@H]1[C@H]2C/C(=C/CCCC(=O)O)O[C@H]2C[C@H]1O [prostacyclin, 9-deoxy-6,9α-epoxy-(5Z)-5,6-didehydro-PGF1]
[2]
  stabilization by albumin (in words): albumin stabilizes prostacyclin
[3]
  protection against degradation (in words): probably protected against degradation when kept in whole blood or plasma
[4]
  chemical stability (in words): spontaneously decomposes to 6-oxo-PGF1α
[5]
  potency to inhibit blood platelet aggregation (in words): most potent prostaglandin-related substance effective to inhibit blood platelet aggregation
